US10716750B2, “Topical ophthalmic formulations of endothelin receptor antagonists” (Retinset, S.L., priority 2015, dated 2020)
Entries after “also recorded” stand apart in the source; their conditions may differ.

Experiments:
[1] = tested on: diabetic mice (db/db); experiment: Immunohistochemical evaluation of apoptosis (TUNEL staining of retina sections) after topical ocular treatment; type: in vivo
Procedure: (§1) In tests 12 male db/db mice aged 10 weeks (Harlan Laboratories, Inc.) were used, and were divided into two groups: 6 of these mice were treated with a formulation of the present invention, and 6 mice with a sodium chloride solution, as described below. 6 non-diabetic (db/+) mice matched by age were also used as the control group.
(§2) On day 15, approximately 1 hour before necropsy, a drop of formulation of the present invention or vehicle was instilled in the eyes of the animals. Following euthanasia, eyes were enucleated. The neuroretina from one of the eyes was extracted, frozen in liquid nitrogen and stored at a temperature of −80° C. The other eye was fixed with a solution of 4% paraformaldehyde, processed routinely, and embedded in paraffin blocks.
Immunohistochemical analysis for apoptosis assessment was carried out TUNEL (Terminal Transferase dUTP Nick-End Labeling) staining using the DeadEnd Fluorometric TUNEL System Kit (Promega, Madison, Wis., USA).
Cryosections of retina were permeabilized by incubation on ice for 2 min with 0.1% Triton X-100 and 0.1% sodium citrate freshly prepared solution. The secondary antibody was Alexa 488 goat anti-rabbit (Invitrogen, San Diego Calif., USA). For evaluation by Laser Scanning Confocal microscopy, the excitation wavelength was 488 nm and detection in the range from 515 to 565 nm, which corresponds to green colour.
The evaluation was carried out in the retina of each animal and a minimum of 10 sections per retina.

[2] = tested on: diabetic mice (db/db); experiment: Determination of glial activation (GFAP staining score, confocal microscopy of retina sections) after topical ocular treatment; type: in vivo
Procedure: as §1, §2
Glial activation was evaluated by Laser Scanning Confocal microscopy using specific antibodies against GFAP (glial fibrillary acidic protein). Retina sections were fixed in acidic methanol at −20° C. for 2 min, followed by three washes with phosphate buffer (PBS) for 5 min each. Retina sections were permeabilized with a tris buffer (TBS) with 0.025% Triton® X-100 and incubated for 2 hours at room temperature in a blocker solution composed of 1% BSA (serum albumin bovine) and 10% goat serum in 10% PBS. Retina sections were incubated with rabbit anti-GFAP antibody (Abcam Ltd, Cambridge, UK; 1:500 dilution prepared in blocking solution) overnight at 4° C. in a humid atmosphere. After three washes with PBS solution, 5 minutes each, the retina sections were incubated with the secondary antibody Alexa 488 goat anti-rabbit (Invitrogen, San Diego Calif., USA) at a 1:200 dilution prepared in blocking solution. Retina sections were washed three times with PBS, counterstained with Hoechst, mounted with Mounting Medium Fluorescence (Prolong, Invitrogen) and mounted with a coverslip. Comparative digital images from samples were recorded with FluoView FV 1000 Laser Scanning Confocal microscope Olympus using identical settings for brightness and contrast.
A scoring system based on the extent of GFAP staining described in Anderson et al., Glial and endothelial blood-retinal barrier responses to amyloid-β in the neural retina of the rat, Olin. Ophthalmol., 2008, 2, 801-816, was used in order to assess the degree of glial activation. This scoring system was as follows: • Score 1: Müller cell endfeet/ ganglion retinal cell layer (GCL) only; • Score 2: Müller cell endfeet region/GCL plus a few proximal processes; • Score 3: Müller cell endfeet plus many processes, but not extending to the outer nuclear layer (ONL) of the retina; • Score 4: Müller cell endfeet plus processes throughout with some in the ONL; • Score 5: Müller cell endfeet plus lots of dark processes from GCL to outer margin of ONL.
The score was assessed on the retina of each animal and a minimum of 10 sections per retina.

## COc1ccccc1Oc1c(NS(=O)(=O)c2ccc(C(C)(C)C)cc2)nc(-c2ncccn2)nc1OCCO [Bosentan]
[1]; 14 days, twice per day, versus control (db/+) and vehicle-treated diabetic animals
  apoptosis in all retinal layers (in words): reduced apoptosis
[1]; topical ocular, twice daily for 14 days, ganglion cell layer, p <0.001 vs vehicle
  TUNEL staining-positive cell percentage, GCL, mean (standard deviation): 1.42 (0.38) %
[1]; topical ocular, twice daily for 14 days, inner nuclear layer, p <0.001 vs vehicle
  TUNEL staining-positive cell percentage, INL, mean (standard deviation): 0.36 (0.31) %
[1]; topical ocular, twice daily for 14 days, outer nuclear layer, p <0.001 vs vehicle
  TUNEL staining-positive cell percentage, ONL, mean (standard deviation): 0 (0.07) %
[2]; 14 days, twice per day, versus vehicle-treated diabetic animals
  glial activation / reactive gliosis (in words): significant decrease of reactive gliosis; also recorded: less glial activation
[2]; one 5 μl drop of formulation of Example 1 per eye, twice daily for 14 days, Score 1: Müller cell endfeet/GCL only
  degree of glial activation (percentage for each score of GFAP expression), Score 1: 85%
[2]; one 5 μl drop of formulation of Example 1 per eye, twice daily for 14 days, Score 2: endfeet region/GCL plus a few proximal processes
  degree of glial activation (percentage for each score of GFAP expression), Score 2: 15%
[2]; one 5 μl drop of formulation of Example 1 per eye, twice daily for 14 days, Score 3: endfeet plus many processes, not extending to ONL
  degree of glial activation (percentage for each score of GFAP expression), Score 3: 0%
[2]; one 5 μl drop of formulation of Example 1 per eye, twice daily for 14 days, Score 4: endfeet plus processes throughout with some in the ONL
  degree of glial activation (percentage for each score of GFAP expression), Score 4: 0%
[2]; one 5 μl drop of formulation of Example 1 per eye, twice daily for 14 days, Score 5: endfeet plus lots of dark processes from GCL to outer margin of ONL
  degree of glial activation (percentage for each score of GFAP expression), Score 5: 0%
[2]; two weeks of administration
  share with GFAP score less than 2: 85%
[2]; two weeks of administration, all cases, score scale 1-5
  GFAP score of the treated animals: < 3
